target: Cyclin-dependent kinase 6 (Homo sapiens) (UniProt Q00534)
Sequence (Q00534 whole entry): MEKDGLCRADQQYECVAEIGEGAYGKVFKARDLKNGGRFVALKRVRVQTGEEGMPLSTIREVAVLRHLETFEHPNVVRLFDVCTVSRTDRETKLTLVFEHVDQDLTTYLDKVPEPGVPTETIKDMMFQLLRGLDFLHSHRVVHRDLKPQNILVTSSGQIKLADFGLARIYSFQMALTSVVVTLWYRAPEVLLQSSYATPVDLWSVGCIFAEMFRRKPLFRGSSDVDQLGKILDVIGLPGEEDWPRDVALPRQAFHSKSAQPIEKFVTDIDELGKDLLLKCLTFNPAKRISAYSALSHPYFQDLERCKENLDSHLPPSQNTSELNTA

| ΔTm [°C] | SMILES |
| --- | --- |
| 0 | CC(C)n1cnc2c(NCc3ccccc3O)nc(NCCCO)nc21 |
| 0.3 | O=C1Nc2ccc(I)cc2/C1=C\c1cc(Br)c(O)c(Br)c1 |
| 1.4 | O=C1Cc2c([nH]c3ccc([N+](=O)[O-])cc23)-c2ccccc2N1 |
| 1.3 | Cn1cc(C2=C(c3cn(CCCN)c4ccccc34)C(=O)NC2=O)c2ccccc21 |
| 4.6 | Nc1nc(Nc2ccc(S(N)(=O)=O)cc2)nn1C(=S)Nc1c(F)cccc1F |

target: Cyclin-dependent kinase 16 (Homo sapiens) (UniProt Q00536)
Sequence (Q00536 whole entry): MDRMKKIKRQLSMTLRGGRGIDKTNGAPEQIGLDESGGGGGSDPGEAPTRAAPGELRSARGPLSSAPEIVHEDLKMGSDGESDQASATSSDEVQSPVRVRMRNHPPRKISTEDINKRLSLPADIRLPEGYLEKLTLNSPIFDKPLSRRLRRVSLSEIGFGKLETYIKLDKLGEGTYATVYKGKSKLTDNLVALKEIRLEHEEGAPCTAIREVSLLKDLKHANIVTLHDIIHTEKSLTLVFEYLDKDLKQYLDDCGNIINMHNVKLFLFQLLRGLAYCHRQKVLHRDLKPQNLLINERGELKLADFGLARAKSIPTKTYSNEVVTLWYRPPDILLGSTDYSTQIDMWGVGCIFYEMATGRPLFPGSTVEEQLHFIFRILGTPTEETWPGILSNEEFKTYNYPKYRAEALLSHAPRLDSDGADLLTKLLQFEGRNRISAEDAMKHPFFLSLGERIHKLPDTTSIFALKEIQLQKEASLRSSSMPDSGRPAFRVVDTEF

| ΔTm [°C] | SMILES |
| --- | --- |
| -0.2 | CC(C)n1cnc2c(NCc3ccccc3O)nc(NCCCO)nc21 |
| -0.4 | O=C1Nc2ccc(I)cc2/C1=C\c1cc(Br)c(O)c(Br)c1 |
| 3.8 | O=C1Cc2c([nH]c3ccc([N+](=O)[O-])cc23)-c2ccccc2N1 |
| 4.7 | Cn1cc(C2=C(c3cn(CCCN)c4ccccc34)C(=O)NC2=O)c2ccccc21 |
| 10 | Nc1nc(Nc2ccc(S(N)(=O)=O)cc2)nn1C(=S)Nc1c(F)cccc1F |

target: T1, Serine/threonine-protein kinase 4 (Homo sapiens) (UniProt Q13043)
T1 sequence (whole entry): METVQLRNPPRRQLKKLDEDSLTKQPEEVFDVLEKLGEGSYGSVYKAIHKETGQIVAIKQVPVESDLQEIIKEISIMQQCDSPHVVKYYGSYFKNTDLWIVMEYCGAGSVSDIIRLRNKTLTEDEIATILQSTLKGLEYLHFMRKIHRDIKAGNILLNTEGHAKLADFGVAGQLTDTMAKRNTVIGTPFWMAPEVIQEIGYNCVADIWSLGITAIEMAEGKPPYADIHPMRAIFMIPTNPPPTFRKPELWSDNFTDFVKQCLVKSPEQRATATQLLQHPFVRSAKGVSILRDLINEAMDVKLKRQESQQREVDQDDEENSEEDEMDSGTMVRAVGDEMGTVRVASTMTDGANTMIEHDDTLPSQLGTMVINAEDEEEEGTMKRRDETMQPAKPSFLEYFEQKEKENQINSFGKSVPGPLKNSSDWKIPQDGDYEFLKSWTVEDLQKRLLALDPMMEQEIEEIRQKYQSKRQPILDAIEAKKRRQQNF

| ΔTm [°C] | SMILES |
| --- | --- |
| 0.3 | CC(C)n1cnc2c(NCc3ccccc3O)nc(NCCCO)nc21 |
| 4.1 | O=C1Nc2ccc(I)cc2/C1=C\c1cc(Br)c(O)c(Br)c1 |
| 5.1 | O=C1Cc2c([nH]c3ccc([N+](=O)[O-])cc23)-c2ccccc2N1 |
| 2.2 | Cn1cc(C2=C(c3cn(CCCN)c4ccccc34)C(=O)NC2=O)c2ccccc21 |
| 12.9 | Nc1nc(Nc2ccc(S(N)(=O)=O)cc2)nn1C(=S)Nc1c(F)cccc1F |

target: Mitogen-activated protein kinase 6 (Homo sapiens) (UniProt Q16659)
Sequence (Q16659 whole entry): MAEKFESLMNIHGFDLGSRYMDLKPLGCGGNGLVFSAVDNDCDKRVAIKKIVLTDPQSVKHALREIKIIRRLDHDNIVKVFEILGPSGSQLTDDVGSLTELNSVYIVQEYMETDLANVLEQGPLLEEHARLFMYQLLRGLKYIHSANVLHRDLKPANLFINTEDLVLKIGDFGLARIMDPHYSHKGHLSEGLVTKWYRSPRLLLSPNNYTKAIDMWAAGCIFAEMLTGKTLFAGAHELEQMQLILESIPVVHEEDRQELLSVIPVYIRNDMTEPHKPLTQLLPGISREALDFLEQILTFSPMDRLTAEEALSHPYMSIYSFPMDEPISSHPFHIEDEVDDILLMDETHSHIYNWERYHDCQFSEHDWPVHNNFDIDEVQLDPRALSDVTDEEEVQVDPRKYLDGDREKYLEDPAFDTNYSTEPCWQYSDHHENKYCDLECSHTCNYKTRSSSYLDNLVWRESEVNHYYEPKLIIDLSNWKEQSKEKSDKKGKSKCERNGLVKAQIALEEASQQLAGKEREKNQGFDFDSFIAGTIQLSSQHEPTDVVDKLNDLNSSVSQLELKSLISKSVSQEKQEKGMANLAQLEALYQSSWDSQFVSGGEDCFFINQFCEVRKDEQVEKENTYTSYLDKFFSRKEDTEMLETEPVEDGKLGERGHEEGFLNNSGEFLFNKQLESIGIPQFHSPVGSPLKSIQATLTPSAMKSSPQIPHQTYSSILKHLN

| ΔTm [°C] | SMILES |
| --- | --- |
| 0 | CC(C)n1cnc2c(NCc3ccccc3O)nc(NCCCO)nc21 |
| 0.4 | O=C1Nc2ccc(I)cc2/C1=C\c1cc(Br)c(O)c(Br)c1 |
| 1.2 | O=C1Cc2c([nH]c3ccc([N+](=O)[O-])cc23)-c2ccccc2N1 |
| 0.3 | Cn1cc(C2=C(c3cn(CCCN)c4ccccc34)C(=O)NC2=O)c2ccccc21 |
| 2.1 | Nc1nc(Nc2ccc(S(N)(=O)=O)cc2)nn1C(=S)Nc1c(F)cccc1F |

target: T2, Mitogen-activated protein kinase kinase kinase 5 (Homo sapiens) (UniProt Q99683)
T2 sequence (whole entry): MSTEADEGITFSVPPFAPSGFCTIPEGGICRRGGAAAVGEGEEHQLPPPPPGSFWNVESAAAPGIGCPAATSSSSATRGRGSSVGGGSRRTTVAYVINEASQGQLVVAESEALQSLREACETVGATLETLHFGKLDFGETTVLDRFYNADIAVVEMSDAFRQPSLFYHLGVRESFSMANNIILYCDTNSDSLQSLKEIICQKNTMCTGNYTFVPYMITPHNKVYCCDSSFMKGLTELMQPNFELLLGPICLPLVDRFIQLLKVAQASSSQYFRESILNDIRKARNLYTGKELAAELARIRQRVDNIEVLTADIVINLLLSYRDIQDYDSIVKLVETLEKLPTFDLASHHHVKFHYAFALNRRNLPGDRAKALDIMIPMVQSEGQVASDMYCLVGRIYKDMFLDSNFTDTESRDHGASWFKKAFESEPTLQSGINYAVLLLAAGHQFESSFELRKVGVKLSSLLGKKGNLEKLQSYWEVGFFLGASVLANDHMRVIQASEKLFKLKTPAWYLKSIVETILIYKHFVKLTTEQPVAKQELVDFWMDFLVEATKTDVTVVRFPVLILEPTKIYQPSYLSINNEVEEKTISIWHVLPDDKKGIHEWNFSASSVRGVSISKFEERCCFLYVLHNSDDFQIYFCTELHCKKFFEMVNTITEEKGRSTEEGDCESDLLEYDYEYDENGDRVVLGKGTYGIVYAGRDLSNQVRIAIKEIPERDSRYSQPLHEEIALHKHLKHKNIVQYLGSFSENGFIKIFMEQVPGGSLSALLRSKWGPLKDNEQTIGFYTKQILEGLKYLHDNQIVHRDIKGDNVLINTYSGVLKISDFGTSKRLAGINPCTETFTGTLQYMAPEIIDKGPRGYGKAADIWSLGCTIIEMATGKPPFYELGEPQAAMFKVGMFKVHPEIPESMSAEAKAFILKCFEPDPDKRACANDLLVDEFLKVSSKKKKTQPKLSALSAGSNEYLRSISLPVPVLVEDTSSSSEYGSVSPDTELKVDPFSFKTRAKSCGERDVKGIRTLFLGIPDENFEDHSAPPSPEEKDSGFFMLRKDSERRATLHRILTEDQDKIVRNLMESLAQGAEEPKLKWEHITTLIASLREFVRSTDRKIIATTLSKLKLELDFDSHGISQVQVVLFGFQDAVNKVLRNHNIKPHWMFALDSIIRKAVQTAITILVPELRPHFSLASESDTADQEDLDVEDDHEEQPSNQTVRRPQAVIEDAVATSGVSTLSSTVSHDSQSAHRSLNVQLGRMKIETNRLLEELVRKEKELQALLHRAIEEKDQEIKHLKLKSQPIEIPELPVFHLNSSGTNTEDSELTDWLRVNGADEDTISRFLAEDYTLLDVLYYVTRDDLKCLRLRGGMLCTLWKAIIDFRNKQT

| ΔTm [°C] | SMILES |
| --- | --- |
| 1 | CC(C)n1cnc2c(NCc3ccccc3O)nc(NCCCO)nc21 |
| 1.7 | O=C1Nc2ccc(I)cc2/C1=C\c1cc(Br)c(O)c(Br)c1 |
| 0.9 | O=C1Cc2c([nH]c3ccc([N+](=O)[O-])cc23)-c2ccccc2N1 |
| 0.3 | Cn1cc(C2=C(c3cn(CCCN)c4ccccc34)C(=O)NC2=O)c2ccccc21 |
| 16.8 | Nc1nc(Nc2ccc(S(N)(=O)=O)cc2)nn1C(=S)Nc1c(F)cccc1F |

target: Serine/threonine-protein kinase PLK1 (Homo sapiens) (UniProt P53350)
Sequence (P53350 whole entry): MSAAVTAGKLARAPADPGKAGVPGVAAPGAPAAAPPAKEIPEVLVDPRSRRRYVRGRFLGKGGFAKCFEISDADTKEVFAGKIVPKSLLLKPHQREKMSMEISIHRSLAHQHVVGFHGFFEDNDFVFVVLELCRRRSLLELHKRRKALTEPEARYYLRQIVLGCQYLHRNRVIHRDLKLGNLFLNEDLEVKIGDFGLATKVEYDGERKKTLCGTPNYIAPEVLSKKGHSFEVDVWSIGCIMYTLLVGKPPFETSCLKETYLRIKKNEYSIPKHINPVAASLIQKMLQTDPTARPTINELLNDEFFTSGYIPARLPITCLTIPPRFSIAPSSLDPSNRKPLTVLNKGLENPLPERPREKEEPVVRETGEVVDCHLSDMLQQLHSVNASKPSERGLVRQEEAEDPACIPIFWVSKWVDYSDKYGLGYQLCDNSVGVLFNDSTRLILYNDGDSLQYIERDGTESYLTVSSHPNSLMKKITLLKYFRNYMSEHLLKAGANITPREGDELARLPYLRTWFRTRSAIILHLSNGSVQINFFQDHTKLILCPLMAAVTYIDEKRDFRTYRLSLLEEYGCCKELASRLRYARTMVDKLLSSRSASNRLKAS

| ΔTm [°C] | SMILES |
| --- | --- |
| 0.5 | CC(C)n1cnc2c(NCc3ccccc3O)nc(NCCCO)nc21 |
| 0.5 | O=C1Nc2ccc(I)cc2/C1=C\c1cc(Br)c(O)c(Br)c1 |
| 0.5 | O=C1Cc2c([nH]c3ccc([N+](=O)[O-])cc23)-c2ccccc2N1 |
| 0.2 | Cn1cc(C2=C(c3cn(CCCN)c4ccccc34)C(=O)NC2=O)c2ccccc21 |
| 4.3 | Nc1nc(Nc2ccc(S(N)(=O)=O)cc2)nn1C(=S)Nc1c(F)cccc1F |

target: Calcium/calmodulin-dependent protein kinase type 1G (Homo sapiens) (UniProt Q96NX5)
Sequence (Q96NX5 whole entry): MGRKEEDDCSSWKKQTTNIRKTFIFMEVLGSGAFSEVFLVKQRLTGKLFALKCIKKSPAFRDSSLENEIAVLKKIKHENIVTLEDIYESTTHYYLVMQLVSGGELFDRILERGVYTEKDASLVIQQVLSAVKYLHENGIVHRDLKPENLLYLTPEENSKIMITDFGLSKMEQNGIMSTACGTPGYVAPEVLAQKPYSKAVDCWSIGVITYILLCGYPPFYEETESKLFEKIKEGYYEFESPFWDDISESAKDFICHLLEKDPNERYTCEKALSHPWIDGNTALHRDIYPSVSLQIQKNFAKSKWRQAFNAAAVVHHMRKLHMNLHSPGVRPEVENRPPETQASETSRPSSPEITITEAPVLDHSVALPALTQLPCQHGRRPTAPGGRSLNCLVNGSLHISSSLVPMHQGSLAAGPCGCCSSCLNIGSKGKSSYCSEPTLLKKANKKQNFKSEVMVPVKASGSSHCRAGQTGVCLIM

| ΔTm [°C] | SMILES |
| --- | --- |
| 0.1 | CC(C)n1cnc2c(NCc3ccccc3O)nc(NCCCO)nc21 |
| -1.8 | O=C1Nc2ccc(I)cc2/C1=C\c1cc(Br)c(O)c(Br)c1 |
| 0.5 | O=C1Cc2c([nH]c3ccc([N+](=O)[O-])cc23)-c2ccccc2N1 |
| 0.3 | Cn1cc(C2=C(c3cn(CCCN)c4ccccc34)C(=O)NC2=O)c2ccccc21 |
| 2 | Nc1nc(Nc2ccc(S(N)(=O)=O)cc2)nn1C(=S)Nc1c(F)cccc1F |

target: T3, Serine/threonine-protein kinase Nek2 (Homo sapiens) (UniProt P51955)
T3 sequence (whole entry): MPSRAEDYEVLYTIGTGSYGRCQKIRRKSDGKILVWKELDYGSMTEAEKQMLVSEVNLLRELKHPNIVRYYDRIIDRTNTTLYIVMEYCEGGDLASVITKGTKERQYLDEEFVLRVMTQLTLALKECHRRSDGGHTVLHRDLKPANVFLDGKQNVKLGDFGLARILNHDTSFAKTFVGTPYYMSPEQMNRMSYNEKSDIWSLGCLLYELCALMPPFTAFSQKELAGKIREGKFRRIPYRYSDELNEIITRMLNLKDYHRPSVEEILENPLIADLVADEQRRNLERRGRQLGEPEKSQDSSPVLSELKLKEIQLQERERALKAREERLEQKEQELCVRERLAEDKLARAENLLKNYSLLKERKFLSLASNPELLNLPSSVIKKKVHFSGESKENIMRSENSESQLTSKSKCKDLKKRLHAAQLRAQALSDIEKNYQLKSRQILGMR

| ΔTm [°C] | SMILES |
| --- | --- |
| 0.3 | CC(C)n1cnc2c(NCc3ccccc3O)nc(NCCCO)nc21 |
| -2.2 | O=C1Nc2ccc(I)cc2/C1=C\c1cc(Br)c(O)c(Br)c1 |
| 2.2 | O=C1Cc2c([nH]c3ccc([N+](=O)[O-])cc23)-c2ccccc2N1 |
| 0.9 | Cn1cc(C2=C(c3cn(CCCN)c4ccccc34)C(=O)NC2=O)c2ccccc21 |
| 2.5 | Nc1nc(Nc2ccc(S(N)(=O)=O)cc2)nn1C(=S)Nc1c(F)cccc1F |

target: Serine/threonine-protein kinase 10 (Homo sapiens) (UniProt O94804)
Sequence (O94804 whole entry, looked up): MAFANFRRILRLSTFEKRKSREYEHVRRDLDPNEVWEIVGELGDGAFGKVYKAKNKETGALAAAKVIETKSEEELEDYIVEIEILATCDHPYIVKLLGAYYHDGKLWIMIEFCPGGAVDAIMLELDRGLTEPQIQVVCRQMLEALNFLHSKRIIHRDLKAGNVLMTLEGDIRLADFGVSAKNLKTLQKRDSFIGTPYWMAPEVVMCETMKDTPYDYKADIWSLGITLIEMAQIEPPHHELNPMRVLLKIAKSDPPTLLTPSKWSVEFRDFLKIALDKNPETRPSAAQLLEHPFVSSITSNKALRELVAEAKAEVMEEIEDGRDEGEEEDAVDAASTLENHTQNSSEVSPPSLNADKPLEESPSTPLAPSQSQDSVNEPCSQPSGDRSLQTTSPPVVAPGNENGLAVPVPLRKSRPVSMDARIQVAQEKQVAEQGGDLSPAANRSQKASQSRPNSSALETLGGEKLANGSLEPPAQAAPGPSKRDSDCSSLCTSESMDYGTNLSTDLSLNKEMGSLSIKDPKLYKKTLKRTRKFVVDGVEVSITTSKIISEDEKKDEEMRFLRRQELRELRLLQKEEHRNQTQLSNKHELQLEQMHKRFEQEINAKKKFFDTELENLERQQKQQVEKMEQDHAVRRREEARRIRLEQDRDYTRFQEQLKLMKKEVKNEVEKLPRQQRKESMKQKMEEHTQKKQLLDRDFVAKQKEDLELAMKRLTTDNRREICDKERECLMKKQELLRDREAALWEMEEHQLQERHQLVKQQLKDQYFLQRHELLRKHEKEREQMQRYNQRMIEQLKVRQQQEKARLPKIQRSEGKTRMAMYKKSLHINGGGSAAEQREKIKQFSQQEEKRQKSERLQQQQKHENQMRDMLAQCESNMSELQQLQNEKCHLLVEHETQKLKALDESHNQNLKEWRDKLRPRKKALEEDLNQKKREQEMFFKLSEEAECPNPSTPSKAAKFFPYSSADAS

| ΔTm [°C] | SMILES |
| --- | --- |
| 0.5 | CC(C)n1cnc2c(NCc3ccccc3O)nc(NCCCO)nc21 |
| 0.5 | O=C1Nc2ccc(I)cc2/C1=C\c1cc(Br)c(O)c(Br)c1 |
| 2.3 | O=C1Cc2c([nH]c3ccc([N+](=O)[O-])cc23)-c2ccccc2N1 |
| 6.7 | Cn1cc(C2=C(c3cn(CCCN)c4ccccc34)C(=O)NC2=O)c2ccccc21 |
| 15.5 | Nc1nc(Nc2ccc(S(N)(=O)=O)cc2)nn1C(=S)Nc1c(F)cccc1F |

target: Dual specificity protein kinase CLK3 (Homo sapiens) (UniProt P49761)
Sequence (P49761 whole entry, looked up): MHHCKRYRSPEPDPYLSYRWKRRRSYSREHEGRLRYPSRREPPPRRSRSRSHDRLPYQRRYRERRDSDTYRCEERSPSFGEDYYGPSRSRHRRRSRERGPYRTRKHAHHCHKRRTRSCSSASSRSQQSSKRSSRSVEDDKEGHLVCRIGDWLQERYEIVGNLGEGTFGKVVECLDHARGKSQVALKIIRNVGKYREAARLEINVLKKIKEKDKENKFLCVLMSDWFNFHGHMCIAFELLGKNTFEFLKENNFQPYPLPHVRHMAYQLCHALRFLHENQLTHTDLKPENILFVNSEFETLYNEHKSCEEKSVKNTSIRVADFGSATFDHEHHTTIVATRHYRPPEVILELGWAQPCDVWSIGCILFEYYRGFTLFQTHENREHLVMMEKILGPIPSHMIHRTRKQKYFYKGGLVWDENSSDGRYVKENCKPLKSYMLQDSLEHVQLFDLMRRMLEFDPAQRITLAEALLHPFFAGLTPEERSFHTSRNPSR

| ΔTm [°C] | SMILES |
| --- | --- |
| 0.1 | CC(C)n1cnc2c(NCc3ccccc3O)nc(NCCCO)nc21 |
| 0.5 | O=C1Nc2ccc(I)cc2/C1=C\c1cc(Br)c(O)c(Br)c1 |
| 1 | O=C1Cc2c([nH]c3ccc([N+](=O)[O-])cc23)-c2ccccc2N1 |
| 3.5 | Cn1cc(C2=C(c3cn(CCCN)c4ccccc34)C(=O)NC2=O)c2ccccc21 |
| 14.7 | Nc1nc(Nc2ccc(S(N)(=O)=O)cc2)nn1C(=S)Nc1c(F)cccc1F |

Source: ChEMBL document CHEMBL1145498, “A systematic interaction map of validated kinase inhibitors with Ser/Thr kinases” (Proc Natl Acad Sci U S A, 2007)
